The text below walks through data of patent publication US8642765B2, “Azaindole-indole coupled derivatives, preparation methods and uses thereof” (priority 2007, dated 2014).

Each structure is given as a SMILES string.

One series deals with DU145 tumor cells. Nature of the series: MTT growth inhibition of DU145 cells, 72 h. As to conditions: for IC50 / IC90: DU145, 72 h, MTT; for growth inhibitory effects on tumor cells (in words): discussion of the MTT assay, DU145. It counts as cell-based, human. How it is done: DU145 cells were inoculated in RPM11640 medium containing 10% calf serum, incubated at 37° C., 5% CO2 in CO2 incubator, and passaged every 2-3 days. In this experiment, cells were grown in logarithmic growth phase.
In the experiment, the cells at logarithmic growth phase were formulated into suspension, and the viability by trypan blue staining was more than 98%. The suspension was divided into several groups: 1 as blank control group (cell suspension); and 2 as experimental groups (cell suspension plus drugs).
(§1) The drugs were formulated into a stock solution in DMSO, and the concentration of the stock solution was 20 mmol (used within 4 hours). In the experiment, the work solution of the drugs was diluted with RPM11640 medium containing 10% calf serum under aseptic condition, to a final concentration of 80 μM. The drug concentrations were increased by 2 times (1.25-20 μM).
(§2) The DU145 cell in logarithmic growth phase were selected, centrifuged, counted, and formulated into a cell suspension (2.5×10^4/ml) with RPM11640 medium containing 10% calf serum. The cell suspension were inoculated into 96-well plates at a density of 5000 cells/200 μl per well, incubated for 24 hours at 37° C., 5% CO2. According to the above concentration of the drug, the cells were inoculated to 6 groups (including one control group), with 8 wells per group. After incubating for 72 hours, the viability of cells was measured by MTT assay. The absorbance value (A) was measured with detection wavelength at 540 nm, reference wavelength at 630 nm. The inhibitory rate (I) was calculated by the following equation, where T was the absorbance value of the experimental groups, and C was the absorbance value of the blank control group: I=(1−T/C)×100%
(§3) The regression equation was calculated by the concentration-inhibitory rate curve, to obtain 50% and 90% inhibition concentration (IC50 and IC90, μM).
On the technique in general: Tetrazolium assays rely on reduction of a dye to a coloured formazan, in cell work by metabolically active cells.

Series [1] is described as follows: Dissolution of solid dispersion preparations. It counts as physicochemical. As to conditions: 45 minute, 100 ml of 1% sodium dodecyl sulfate solution, 37±0.5° C., 100 r/min. How it is done:
Instruments: RCZ-5A capacity medicament dissolve and infiltrate apparatus is made by Tianjin University Precision Instruments Factory. UV1900 UV-Vis spectrophotometer is made by Shanghai Yayan Electronic Science And Technology Co., Ltd.
Dissolution determination methods: According to the third method of XC dissolution assay stated in the appendix of Chinese Pharmacopeia (Edition 2005), the rotation speed was 100 r/min, the temperature was 37±0.5° C., and the dissolution medium was 100 ml of 1% sodium dodecyl sulfate solution degassed ultrasonically. A specimen was withdrawn at 45 minute and immediately filtered through a 0.8 μm water membrane. The filtrate was quantitatively diluted. The absorbance was measured by UV1900, and the dissolution percentage was calculated.

For series [2], the system named is human hepatoma cell line 7701 QGY. Nature of the series: MTT growth inhibition of 7701 QGY cells. It counts as cell-based. The settings on record: read-out: IC50 (μM) Tumor cells 7701 QGY. How it is done:
as §1, §2, §3
(§4) 1. Tumor Cells: human hepatoma cell lines 7701 QGY and HepG-2, human lung adenocarcinoma cell line A549, human chronic myelocytic leukemia cell line K562, human leukemia cell line CEM and mouse melanoma cell line K111.
(§5) 2. Using the methods described in example 2, the biological activity of a portion of newly synthesized 5- or 7-azaindirubin derivatives and 5- or 7-azaisoindigo derivatives (20 compounds) for inhibiting various tumor cells growth were determined.

Series [3] has as its system human hepatoma cell line HepG-2. Nature of the series: MTT growth inhibition of HepG-2 cells. The class given is cell-based. The settings on record: HepG-2, MTT; read-out: IC50 (μM) Tumor cells HepG-2. On the procedure: as §1, §2, §3, §4, §5
For series [4], the system named is human lung adenocarcinoma cell line A549. Nature of the series: MTT growth inhibition of A549 cells. The class given is cell-based. The settings on record: read-out: IC50 (μM) Tumor cells A549. How it is done: as §1, §2, §3, §4, §5
Series [5] has as its system human chronic myelocytic leukemia cell line K562. Nature of the series: MTT growth inhibition of K562 cells. It counts as cell-based. The settings on record: read-out: IC50 (μM) Tumor cells K562. On the procedure:
as §1, §2, §3, §4, §5

In series [6] the test system is human leukemia cell line CEM. Nature of the series: MTT growth inhibition of CEM cells. The class given is cell-based. The settings on record: read-out: IC50 (μM) Tumor cells CEM. On the procedure:
as §1, §2, §3, §4, §5

For series [7], the system named is mouse melanoma cell line K111. Nature of the series: MTT growth inhibition of K111 cells. It counts as cell-based. The settings on record: Klll, read-out: IC50 (μM) Tumor cells Klll. On the procedure:
as §1, §2, §3, §4, §5

The nature of series [8]: Safety profile (stated in the discussion, no method described). As to conditions: discussion of Example 2; no data shown.
The test system of a further series is phospho-CDK2^Thr160. Nature of the series: Western blot of phospho-CDK2 in DU145 cells. The class given is cell-based, human. The settings on record: DU145, treated for 24 hours, FIG. 3. The text has this: (§6) Reagents: The tested compounds were the same as example 2. Unless otherwise indicated, other chemical reagents were purchased from Sigma Chemical Company (USA). Polyacrylamide gel used in protein electrophoresis, SDS, electrophoresis buffer, transfer buffer protein, nitrocellulose membrane were purchased from American Bio-Rad Life Science Company. Western blotting detection kits and films were purchased from American GE Company. Phospho-CDK2^Thr160 antibody, endogenous cyclin-dependent inhibitor p27 antibody, CyclinD1 and β-Actin antibody were purchased from American Cell Signaling Inc., DAKO and Santa Cruz Biochemical Technology Company.
(§7) Tumor cells and methods for cell culture were the same as example 2.
(§8) Phospho-Cdc2, p27, and Cyclin D1 were Detected by Western Blot: The human prostate cancer cell lines DU145 at logarithmic growth phase were treated with compounds No. 124 and No. 126 (concentration is shown in FIG. 3) for 24 hours. The cells were harvested and washed. Total cellular proteins were extracted and quantified as described previously^[14]. 50 μg of protein was separated on a SDS-PAGE, electro-transferred to nitrocellulose filters. Western blot were performed using specific antibodies against Phospho-CDK2, endogenous cyclin-dependent inhibitor p27 and CyclinD1, with β-Actin antibody as an internal standard. The result was recorded by ECL films.
(A western blot detects proteins with antibodies after separation by electrophoresis.)

For a further series, the system named is Cyclin D1. Nature of the series: Western blot of Cyclin D1 in DU145 cells. The class given is cell-based, human. As to conditions: DU145, treated for 24 hours, FIG. 3.
Source text: as §6, §7, §8

The subject of series [9] is endogenous cyclin-dependent inhibitor p27. Nature of the series: Western blot of p27 in DU145 cells. It counts as cell-based, human. The settings on record: DU145, treated for 24 hours, FIG. 3.
Source text: as §6, §7, §8

As usually defined, the IC50 is the concentration that inhibits the measured activity by half. By IC90 is commonly meant the concentration at which the effect reaches the 90% level. High values mean a need for much substance, low ones an effect from little substance. In the series on DU145 tumor cells (Table 5), `O=C1C(=C2C(=O)N(Cc3ccccc3)c3ccncc32)Nc2ccc(Br)cc21` [Compound 18] came in with an IC50 of 6.6 µM and an IC90 of 23.5 µM. In addition, in series [1], the “Dissolution percentages (%)” value is 4%.

On to `CC(C)N1C(=O)C(=C2Nc3ccc(Br)cc3C2=NO)c2cccnc21` [Compound 121], for which the half-maximal inhibitory concentration (IC50) in the series on DU145 tumor cells (Table 6) is 3.1 µM; in series [2], 14.9 µM; in [3], 16 µM; in series [4], 18.1 µM; in [5], 11.5 µM; in series [6], 11.3 µM. Besides, the IC50 in series [7] worked out at 6 µM. This compound also showed an IC90 in the series on DU145 tumor cells (Table 6) of 29 µM. The “growth inhibitory effects on tumor cells (in words)” value in the series with DU145 tumor cells is reported as “relatively significant growth inhibitory effects”. The safety profile result in [8] is “good safety profile”.

Take `CCCCN1C(=O)C(=C2Nc3ccc(Cl)cc3C2=NO)c2cccnc21` [Compound 124]: in the series with DU145 tumor cells (Table 6), the IC50 worked out at 1.8 µM and it took 12 µM to reach the 90% level (IC90). In the series on DU145 tumor cells, the “growth inhibitory effects on tumor cells (in words)” value is given as “relatively significant growth inhibitory effects”. In addition, the “level of CDK2 activity (phosphorylation)” value in the series on phospho-CDK2^Thr160 is reported as “decreased in a dose-dependent manner”. Also, in the series on Cyclin D1, the “protein expression of cyclin D1” value is reported as “significantly decreased”. Further, in series [9], the “expression of endogenous cyclin-dependent inhibitor p27” value is on record as “significantly increased”. For the same compound, in series [8], the safety profile result is reported as “good safety profile”.

For the compound `O=C1C(=C2Nc3ccc(Cl)cc3C2=NO)c2cccnc2N1Cc1ccccc1` [Compound 126], the IC50 was 7.1 µM in the series on DU145 tumor cells (Table 6); 11.2 µM in [2]; 16.3 µM in series [3]; 9.6 µM in series [4]; 5.1 µM in [5]; 8.1 µM in series [6]. For the same compound, in [7], the IC50 turned out to be 14.2 µM. Besides, it took 19 µM to reach the 90% level in the series on DU145 tumor cells (Table 6) (IC90). Further, in the series with phospho-CDK2^Thr160, the “level of CDK2 activity (phosphorylation)” value is “decreased in a dose-dependent manner”. Also, the “protein expression of cyclin D1” value in the series with Cyclin D1 was “significantly decreased”. For the same compound, the “expression of endogenous cyclin-dependent inhibitor p27” value in series [9] is reported as “significantly increased”.
